Assays:
[1] = test system: SUDHL 2; test: DLBCL cell line sensitivity to IKE (CellTiter-Glo viability, 24 h); format: cell-based; conditions: Homo sapiens, SU-DHL-2; SUDHL 2, 24 hours; read-out: cell line sensitivity to IKE (IC50 class)
Procedure: (§1) DLBCL cells were plated at 10,000 cells per well in white 384-well plates (32 μL per well) in technical duplicates and incubated overnight. The cells were then treated with 8 μL medium containing a two-fold dilution series of vehicle (DMSO), IKE (starting from 100 μM) with or without Fer-1 (starting from 200 μM). After 24 h incubation, 40 μL of 50% CellTiter-Glo (Promega) 50% cell culture medium was added to each well and incubated at room temperature with shaking for 15 min. Luminescence was measured using a Victor X5 plate reader (PerkinElmer). All cell viability data were normalized to the DMSO vehicle condition. Experiments were performed three independent times with different passages for each cell line.

[2] = test system: SUDHL 10; test: as above; format: cell-based; conditions: Homo sapiens, SU-DHL10; SUDHL 10, 24 hours; read-out: cell line sensitivity to IKE (IC50 class)
Procedure: as §1

[3] = test system: SUDHL 9; test: as above; format: cell-based; conditions: SUDHL 9, 24 hours
Procedure: as §1

[4] = test system: A3/KAW; test: as above; format: cell-based; conditions: read-out: cell line sensitivity to IKE (IC50 class)
Procedure: as §1

[5] = test system: SUDHL 7; test: as above; format: cell-based; conditions: SUDHL 7, 24 hours; read-out: cell line sensitivity to IKE (IC50 class)
Procedure: as §1

[6] = test system: DOHH 2; test: as above; format: cell-based; conditions: Homo sapiens; DOHH 2, 24 hours; read-out: cell line sensitivity to IKE (IC50 class)
Procedure: as §1

[7] = IKE efficacy study, mouse weight; format: in vivo, NCG mice; conditions: 14 days, starting from day 9
Procedure: IKE was dissolved in 5% DMSO/95% HBSS at pH 4 to create a 4 mg/mL solution. 5% DMSO/95% HBSS at pH 4 was used as vehicle 1. IKE PEG-PLGA nanoparticles and unfunctionalized PEG-PLGA nanoparticles (without IKE loading) (vehicle 2) prepared with a NanoAssemblr were dialyzed with deionized water overnight, the water was changed at least twice. Dialyzed IKE-PEG-PLGA nanoparticles and unfunctional PEG-PLGA nanoparticles were concentrated by Amicon Ultra-15 Centrifugal Filter Units to create a solution with 80 mg/mL PEG-PLGA nanoparticles. All above solutions were sterilized by filter through a 0.2 μm syringe filter.
NCG mice, 6-weeks old, were injected with 10 million SUDHLO-6 cells subcutaneously. […] Tumor volume was measured daily with electronic caliper and calculated using the formula: 0.5×length×width^2. […] Tumor volume change was analyzed in Prism using one-way ANOVA. Tumor tissues were analyzed as described in the RT-qPCR, immunofluorescence, TBARS, and lipidomics sections below.
We investigated the efficacy of IKE in vivo in male NCG mice bearing SUDHL6 subcutaneous xenografts. […] During the experimental period, mouse weight and tumor volume were measured daily to determine IKE's antitumor effect and possible toxicity. Tumor growth was calculated as the fold change relative to original tumor volume on day 0 before the first dose (FIG. 4C). […]

[8] = test system: SUDHL6 xenograft tumor tissue; test: Immunofluorescence on frozen tumor sections from efficacy study (COX-2, MDA, 8-OHdG); format: in vivo, NCG mice
Procedure: NCG mice, 6-weeks old, were injected with 10 million SUDHLO-6 cells subcutaneously. The mice were treated after the tumor size reached 100 mm^3. Mice were separated randomly into treatment groups and dosed with 23 mg/kg IKE, 40 mg/kg IKE, 23 mg/kg IKE PEG-PLGA nanoparticles (equal to 700 mg/kg PEG-PLGA), vehicle 1 (based on volume), and vehicle 2 (700 mg/kg PEG-PLGA) once daily by IP for 14 days. Tumor volume was measured daily with electronic caliper and calculated using the formula: 0.5×length×width^2. 3 h after the final dosage, mice were euthanized with CO2 and tumor tissue was dissected, weighed, divided into 4-6 segments, frozen, and stored at −80° C. Tumor volume change was analyzed in Prism using one-way ANOVA. Tumor tissues were analyzed as described in the RT-qPCR, immunofluorescence, TBARS, and lipidomics sections below.
Tumor tissues were fixed in 4% paraformaldehyde (PFA) for 24 h at 4° C. followed by washing with PBS three times. The tissues were perfused in 30% sucrose for 24 h at 4° C. for cryo-protection. The samples were embedded in OCT cryostat sectioning medium, and then moved directly into a cryostat. After equilibration of temperature, frozen tumor tissues were cut into 5 μm thick sections. Tissue sections were mounted on to poly-L-lysine coated slides by placing the cold sections onto warm slides. Slides were stored at −80° C. until staining. For staining, slides were warmed to room temperature followed by washing with PBS twice. A hydrophobic barrier pen was used to draw a circle on each slide. The slides were permeabilized with PBS/0.4% Triton X-100 twice before non-specific-binding blocking by incubating the sections with 10% goat serum (ThermoFisher 50197Z) for 30 minutes at room temperature. The sections were separately incubated with mouse anti-MDA mAb 1F83 (1:1000 dilution), anti-cyclooxygenase 2 (COX 2, AKA PTGS2) antibody (Abcam, ab15191, 1:200 dilution), or anti-8-OH-dG (DNA/RNA damage) antibody (Abcam, ab62623, 1:200 dilution) overnight at 4° C. in humidified chambers. Sections were washed with PBST for twice before incubating with goat anti-mouse IgG H&L (Alexa Fluor 647) (Abcam, ab150115, 1:1000 dilution) or goat anti-rabbit IgG H&L highly cross-absorbed secondary antibody (Alexa Fluor488, Thermo Fisher Scientific, A-11034, 1:1000) at room temperature for 1 h. Slides were then washed twice with PBST. ProLong Diamond antifade mountant with DAPI (ThermoFisher P36962) was added onto slides, which were then covered with the coverslips, sealed by clear fingernail polish and observed under confocal microscopy. All images were captured on a Zeiss LSM 800 confocal microscope at Plan-Apochromat 63×/1.40 Oil DIC objective with constant laser intensity for all analyzed samples. The intensity above threshold of the fluorescent signal of the bound antibodies was analyzed using NIH ImageJ software. Data were expressed as fold change comparing with the vehicle.

## CC(C)Oc1ccc(C(=O)Cn2ccnc2)cc1-n1c(CN2CCN(C(=O)COc3ccc(Cl)cc3)CC2)nc2ccccc2c1=O [IKE, Imidazole ketone erastin]
[1]
  IC50: < 100 nM
[2]
  IC50: < 100 nM
[3]
  cell line sensitivity to IKE (IC50 class): moderately resistant
[4]
  IC50: > 10000 nM
[5]
  IC50: > 10000 nM
[6]
  IC50: < 100 nM
[7]; 23 mg/kg daily
  mouse weight: weight loss
[7]; 40 mg/kg daily
  mouse weight: weight loss
[8]; 23 mg/kg daily for 14 days
  increase in 8-OHdG intensity (immunofluorescence): 1.8 fold
  increase in COX-2 intensity (immunofluorescence): 2.0 fold
  increase in MDA intensity (immunofluorescence): 1.8 fold
[8]; 40 mg/kg daily for 14 days
  increase in 8-OHdG intensity (immunofluorescence): 2.2 fold
  increase in COX-2 intensity (immunofluorescence): 2.8 fold
  increase in MDA intensity (immunofluorescence): 2.0 fold
